Laboratory results reported in ChEMBL document CHEMBL4007488, “Amphiphilic Indole Derivatives as Antimycobacterial Agents: Structure-Activity Relationships and Membrane Targeting Properties” (J Med Chem, 2017).

What was measured:
[1] = system: Mycobacterium tuberculosis; assay: Antimycobacterial activity against Mycobacterium tuberculosis H37Rv ATCC 27294 assessed as growth inhibition at 10 uM after 5 days relative to control; format: functional; conditions: H37Rv ATCC 27294, 120 h, read-out: GI
[2] = system: Mycolicibacterium smegmatis; assay: Antimycobacterial activity against Mycobacterium smegmatis MC2 155 ATCC 700084 assessed as growth inhibition at 10 uM after 5 days relative to control; format: functional; conditions: MC2 155 ATCC 700084, 120 h, read-out: GI

Compound	inhibition of growth at 10 µM [1] [%]	inhibition of growth at 10 µM [2] [%]
CC(C)=CCC/C(C)=C/Cn1cc(CN2CCC(C)CC2)c2cc(F)ccc21	99	99
CCCCCCCCn1cc(CNCCC)c2cc(F)ccc21	99	99
CC(C)=CCC/C(C)=C/Cn1ccc2cc(F)ccc21	99	99
CC(C)=CCC/C(C)=C/Cn1cc(CN2CCS(=O)(=O)CC2)c2cc(F)ccc21	99	99
CCCCCCCCn1cc(CNC23CC4CC(CC(C4)C2)C3)c2cccc(F)c21	99	99
CCCCCCCCn1cc(CN2CCCCC2)c2ccc(F)cc21	99	99
CCCCCCCCn1cc(CN2CCCCC2)c2cc(F)ccc21	99	99
CCCCCCCCn1cc(CN2CCC(C)CC2)c2cccc(OC)c21	99	99
CCCCCCCCn1cc(CN2CCCCC2)c2cc(Br)ccc21	99	99
CCCCCCCCn1cc(CN2CCC3(CC2)OCCO3)c2c(OC)cccc21	99	99
CCCCCCCCn1cc(CNC23CC4CC(CC(C4)C2)C3)c2c(OC)cccc21	99	99
CCCCCCCCn1cc(CN2CCCCC2)c2c(F)cccc21	99	99
CCCCCCCCn1cc(CN2CCCCCC2)c2c(OC)cccc21	99	99
Fc1ccc2c(c1)c(CN1CCCCC1)cn2CCCOc1ccccc1	99	99
CCCCCCCCn1cc(CN2CCC(C)CC2)c2cccc(F)c21	99	99
CC(C)=CCC/C(C)=C/Cn1cc(CNC2CCCCCC2)c2cc(F)ccc21	99	99
CCCCCCCCn1cc(CN(CC)CC)c2cc(F)ccc21	99	99
CCCCCCCCn1cc(CNC23CC4CC(CC(C4)C2)C3)c2ccc(F)cc21	99	99
CCCCCCCCn1cc(CN(C)C)c2cc(F)ccc21	99	99
CCCCCCCCn1cc(CNC2CCCC2)c2cc(F)ccc21	99	99
Fc1ccc2c(c1)c(CN1CCCCC1)cn2CCC1CCCCC1	99	99
CCCCCCCCn1cc(CN2CCCCC2)c2ccccc21	99	99
CCCN(C)Cc1cn(C/C=C(\C)CCC=C(C)C)c2ccc(F)cc12	99	99
CCCCCCCCn1cc(CNC(C)C)c2cc(F)ccc21	99	99
CCCCCCCCn1cc(CN2CCC(C)CC2)c2c(OC)cccc21	99	99
O=C(Cn1cc(CN2CCCCC2)c2cc(F)ccc21)NC1CC1	99	99

Compound	inhibition of growth at 10 µM [1] [%]	inhibition of growth at 10 µM [2] [%]
CCCCCCCCn1cc(CN2CCOCC2)c2cc(F)ccc21	99	99
CCCCNC(=O)Cn1cc(CN2CCCCC2)c2cc(F)ccc21	99	99
CCCCCCCCn1cc(CN2CCCCC2)c2ccc(OC)cc21	99	99
CCCCCCCCn1cc(CN(CCCC)CCCC)c2cc(F)ccc21	99	99
CC(C)=CCC/C(C)=C/Cn1cc(CN2CCCCC2)c2cc(Br)ccc21	99	99
COc1ccc2c(c1)c(CN1CCCCC1)cn2C/C=C(\C)CCC=C(C)C	99	99
CCCCCCCCn1cc(CN2CCCCC2)c2cc(OC)ccc21	99	99
CC(C)=CCC/C(C)=C/Cn1cc(CN2CCCCC2)c2cccnc21	99	99
CC(C)=CCC/C(C)=C/Cn1cc(CN2CCSCC2)c2cc(F)ccc21	99	99
CCCCCCCCn1cc(CN2CCC(C)CC2)c2ccc(F)cc21	99	99
CC(C)=CCC/C(C)=C/Cn1cc(CN2CCN(C)CC2)c2cc(F)ccc21	99	99
CCCCCCCCn1cc(CN2CCCCCC2)c2cccc(OC)c21	99	99
CCN1CCN(Cc2cn(C/C=C(\C)CCC=C(C)C)c3ccc(F)cc23)CC1	99	99
CC(C)=CCC/C(C)=C/Cn1cc(CN(C)C)c2cc(F)ccc21	99	99
CCCCCCCCn1cc(CN2CCN(CC)CC2)c2cc(F)ccc21	99	99
CCCCCCCCn1cc(CN2CCSCC2)c2cc(F)ccc21	99	99
CC(C)=CCC/C(C)=C/Cn1cc(CN2CCCCC2)c2ccccc21	99	99
Fc1ccc2[nH]cc(CN3CCCCC3)c2c1	99	99
CCCCCCCCn1cc(CN2CCCCC2)c2cccc(F)c21	99	99
CCCCCCCCn1cc(CN2CCC3(CC2)OCCO3)c2cc(F)ccc21	99	99
CCCCCCCCn1cc(CN(C)CCC)c2cc(F)ccc21	99	99
CCCCCCCCn1cc(CN2CCC3(CC2)OCCO3)c2cccc(OC)c21	99	99
CC(C)=CCC/C(C)=C/Cn1cc(CN2CCCCCC2)c2cc(F)ccc21	99	99
Fc1ccc2c(c1)c(CN1CCCCC1)cn2CCCc1ccccc1	99	99
CCCCCCCCn1cc(CN2CCCCC2)c2cccc(OC)c21	99	99
N#CCCCn1cc(CN2CCCCC2)c2cc(F)ccc21	99	99

Compound	inhibition of growth at 10 µM [1] [%]	inhibition of growth at 10 µM [2] [%]
CCCCN(CCCC)Cc1cn(C/C=C(\C)CCC=C(C)C)c2ccc(F)cc12	99	99
CCCCCCCCn1cc(CN2CCC3(CC2)OCCO3)c2cc(OC)ccc21	99	99
CCCCCCCCn1cc(CN2CCCCCC2)c2ccc(F)cc21	99	99
CCCCCCCCn1cc(CN2CCC3(CC2)OCCO3)c2cccc(F)c21	99	99
CC(C)=CCC/C(C)=C/Cn1cc(CNC23CC4CC(CC(C4)C2)C3)c2cc(F)ccc21	99	99
CCCCCCCCn1cc(CNC23CC4CC(CC(C4)C2)C3)c2cc(F)ccc21	99	99
CC(C)=CCC/C(C)=C/Cn1cc(CN2CCOCC2)c2cc(F)ccc21	99	99
CC(C)=CCC/C(C)=C/Cn1cc(CN2CCCCC2)c2cc(Cl)ccc21	99	99
CCN(CC)Cc1cn(C/C=C(\C)CCC=C(C)C)c2ccc(F)cc12	99	99
CC(C)=CCC/C(C)=C/Cn1cc(CN2CCCC2)c2cc(F)ccc21	99	99
CCCCCCCCn1cc(CNC2CC2)c2cc(F)ccc21	99	99
CCCCCCCCn1cc(CN2CCC(C)CC2)c2cc(F)ccc21	99	99
CC(C)=CCC/C(C)=C/Cn1cc(CNC2CCCC2)c2cc(F)ccc21	99	99
CCCCCCCCn1ccc2cc(F)ccc21	99	99
CCCCCCCCn1cc(CN(CCC)CCC)c2cc(F)ccc21	99	99
CC(C)=CCC/C(C)=C/Cn1cc(CN2CCC3(CC2)OCCO3)c2cc(F)ccc21	99	99
CCCCCCCCn1cc(CN2CCCCC2)c2c(OC)cccc21	99	99
CCCCCCCCn1cc(CN2CCCCCC2)c2ccc(OC)cc21	99	99
CCCCCCCCn1cc(CN2CCN(C)CC2)c2cc(F)ccc21	99	99
CCCCCCCCn1cc(CNC2CCCCCC2)c2cc(F)ccc21	99	99
CCCCCCCCn1cc(CN2CCCCCC2)c2cc(F)ccc21	99	99
CCCN(CC)Cc1cn(C/C=C(\C)CCC=C(C)C)c2ccc(F)cc12	99	99
CCCCCCCCn1cc(CNC23CC4CC(CC(C4)C2)C3)c2cccc(OC)c21	99	99
CCCCn1cc(CN2CCCCC2)c2cc(F)ccc21	99	99
CCCCCCCCn1cc(CN2CCCCC2)c2cc(Cl)ccc21	99	99
